These results are taken from patent US20250304596A1, “PYRAZINE DERIVATIVES AND USES THEREOF” (FOGHORN THERAPEUTICS INC., priority 2022, published 2025).

One assay concerns the target T1, HiBit-BRM fusion protein (Homo sapiens, UniProt P51531).
T1 construct: expressed in transfected cells
As to the kind of experiment: HiBiT-BRM cell-based degradation assay (Nano-Glo HiBiT Lytic Detection, 24 h). Conditions: stable HeLa cell line expressing HiBiT-BRM; for DC50: read-out: BRM HiBit Degradation IC50. An outline of the steps: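 A stable HeLa line expressing HiBiT-BRM was treated for 24 h with compound in a 10-point, 3-fold series (30 μM final top dose). Remaining HiBiT-BRM was read by lytic LgBiT complementation luminescence. % degradation was normalised to DMSO (high control) and 2 μM reference BRM/BRG1 degrader (low control).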
A general note: The HiBiT peptide binds its large partner to form an active luciferase.

The target of assay [1] is T2, HiBit-BRG1 fusion protein (Homo sapiens, UniProt P51532).
T2 construct: expressed in transfected cells
As to the kind of experiment: HiBiT-BRG1 cell-based degradation assay (Nano-Glo HiBiT Lytic Detection, 24 h). Conditions: stable HeLa cell line expressing HiBit-BRG1 and LgBit; for Dmax: read-out: BRG1 HiBit Degradation Maximum (%); for DC50: read-out: BRMG1 HiBit Degradation IC50. A digest of the protocol: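 HeLa cells stably expressing HiBit-BRG1 and LgBit, treated 24 h with 3-fold dilutions (10 points, duplicate, 30 μM final top dose). Luminescence read after Nano-Glo HiBiT lytic reagent; % degradation scaled between DMSO (high) and 2 μM reference BRM/BRG1 degrader (low control).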

T1 sequence (P51531 whole entry, the tested form may be a part): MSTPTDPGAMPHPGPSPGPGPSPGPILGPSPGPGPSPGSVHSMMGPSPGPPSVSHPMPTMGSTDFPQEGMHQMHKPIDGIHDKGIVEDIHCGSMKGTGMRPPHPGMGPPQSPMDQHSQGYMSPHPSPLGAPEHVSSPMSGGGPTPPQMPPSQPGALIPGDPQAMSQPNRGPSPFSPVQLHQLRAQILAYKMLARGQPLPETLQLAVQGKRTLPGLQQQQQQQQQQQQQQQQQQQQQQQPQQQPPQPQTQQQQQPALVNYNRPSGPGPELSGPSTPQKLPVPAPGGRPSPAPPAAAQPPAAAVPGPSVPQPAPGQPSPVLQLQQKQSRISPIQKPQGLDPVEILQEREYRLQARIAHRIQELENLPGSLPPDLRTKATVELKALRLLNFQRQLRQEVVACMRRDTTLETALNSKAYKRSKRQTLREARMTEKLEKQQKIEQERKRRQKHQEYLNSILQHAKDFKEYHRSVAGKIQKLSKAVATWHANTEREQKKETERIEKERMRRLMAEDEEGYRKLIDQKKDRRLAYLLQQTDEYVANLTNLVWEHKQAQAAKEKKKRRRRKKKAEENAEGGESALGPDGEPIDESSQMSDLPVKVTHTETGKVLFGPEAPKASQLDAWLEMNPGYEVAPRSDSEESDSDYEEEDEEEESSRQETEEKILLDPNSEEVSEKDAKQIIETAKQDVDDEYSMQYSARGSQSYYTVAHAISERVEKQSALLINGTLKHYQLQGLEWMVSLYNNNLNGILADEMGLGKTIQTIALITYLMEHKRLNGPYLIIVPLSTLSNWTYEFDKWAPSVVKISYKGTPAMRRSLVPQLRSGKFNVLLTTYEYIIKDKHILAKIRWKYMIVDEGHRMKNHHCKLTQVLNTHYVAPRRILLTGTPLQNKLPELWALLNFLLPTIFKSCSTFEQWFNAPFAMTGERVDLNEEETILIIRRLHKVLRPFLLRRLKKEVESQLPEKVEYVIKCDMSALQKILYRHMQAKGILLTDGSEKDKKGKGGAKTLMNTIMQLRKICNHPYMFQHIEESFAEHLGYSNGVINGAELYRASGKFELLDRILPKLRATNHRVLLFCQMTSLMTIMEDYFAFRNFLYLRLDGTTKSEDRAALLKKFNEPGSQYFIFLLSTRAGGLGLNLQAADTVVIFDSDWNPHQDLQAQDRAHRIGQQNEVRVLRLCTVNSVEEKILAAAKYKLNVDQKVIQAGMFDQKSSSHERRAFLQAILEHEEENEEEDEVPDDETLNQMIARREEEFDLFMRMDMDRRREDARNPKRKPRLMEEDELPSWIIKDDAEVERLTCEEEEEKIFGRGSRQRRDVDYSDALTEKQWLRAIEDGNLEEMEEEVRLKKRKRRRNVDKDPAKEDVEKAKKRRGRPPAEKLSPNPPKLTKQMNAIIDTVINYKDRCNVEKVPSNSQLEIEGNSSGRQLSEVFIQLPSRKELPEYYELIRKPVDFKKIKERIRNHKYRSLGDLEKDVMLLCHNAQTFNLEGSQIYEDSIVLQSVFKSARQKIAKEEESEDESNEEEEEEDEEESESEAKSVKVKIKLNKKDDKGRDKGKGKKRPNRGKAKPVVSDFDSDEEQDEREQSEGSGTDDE
T2 sequence (P51532 whole entry, the tested form may be a part): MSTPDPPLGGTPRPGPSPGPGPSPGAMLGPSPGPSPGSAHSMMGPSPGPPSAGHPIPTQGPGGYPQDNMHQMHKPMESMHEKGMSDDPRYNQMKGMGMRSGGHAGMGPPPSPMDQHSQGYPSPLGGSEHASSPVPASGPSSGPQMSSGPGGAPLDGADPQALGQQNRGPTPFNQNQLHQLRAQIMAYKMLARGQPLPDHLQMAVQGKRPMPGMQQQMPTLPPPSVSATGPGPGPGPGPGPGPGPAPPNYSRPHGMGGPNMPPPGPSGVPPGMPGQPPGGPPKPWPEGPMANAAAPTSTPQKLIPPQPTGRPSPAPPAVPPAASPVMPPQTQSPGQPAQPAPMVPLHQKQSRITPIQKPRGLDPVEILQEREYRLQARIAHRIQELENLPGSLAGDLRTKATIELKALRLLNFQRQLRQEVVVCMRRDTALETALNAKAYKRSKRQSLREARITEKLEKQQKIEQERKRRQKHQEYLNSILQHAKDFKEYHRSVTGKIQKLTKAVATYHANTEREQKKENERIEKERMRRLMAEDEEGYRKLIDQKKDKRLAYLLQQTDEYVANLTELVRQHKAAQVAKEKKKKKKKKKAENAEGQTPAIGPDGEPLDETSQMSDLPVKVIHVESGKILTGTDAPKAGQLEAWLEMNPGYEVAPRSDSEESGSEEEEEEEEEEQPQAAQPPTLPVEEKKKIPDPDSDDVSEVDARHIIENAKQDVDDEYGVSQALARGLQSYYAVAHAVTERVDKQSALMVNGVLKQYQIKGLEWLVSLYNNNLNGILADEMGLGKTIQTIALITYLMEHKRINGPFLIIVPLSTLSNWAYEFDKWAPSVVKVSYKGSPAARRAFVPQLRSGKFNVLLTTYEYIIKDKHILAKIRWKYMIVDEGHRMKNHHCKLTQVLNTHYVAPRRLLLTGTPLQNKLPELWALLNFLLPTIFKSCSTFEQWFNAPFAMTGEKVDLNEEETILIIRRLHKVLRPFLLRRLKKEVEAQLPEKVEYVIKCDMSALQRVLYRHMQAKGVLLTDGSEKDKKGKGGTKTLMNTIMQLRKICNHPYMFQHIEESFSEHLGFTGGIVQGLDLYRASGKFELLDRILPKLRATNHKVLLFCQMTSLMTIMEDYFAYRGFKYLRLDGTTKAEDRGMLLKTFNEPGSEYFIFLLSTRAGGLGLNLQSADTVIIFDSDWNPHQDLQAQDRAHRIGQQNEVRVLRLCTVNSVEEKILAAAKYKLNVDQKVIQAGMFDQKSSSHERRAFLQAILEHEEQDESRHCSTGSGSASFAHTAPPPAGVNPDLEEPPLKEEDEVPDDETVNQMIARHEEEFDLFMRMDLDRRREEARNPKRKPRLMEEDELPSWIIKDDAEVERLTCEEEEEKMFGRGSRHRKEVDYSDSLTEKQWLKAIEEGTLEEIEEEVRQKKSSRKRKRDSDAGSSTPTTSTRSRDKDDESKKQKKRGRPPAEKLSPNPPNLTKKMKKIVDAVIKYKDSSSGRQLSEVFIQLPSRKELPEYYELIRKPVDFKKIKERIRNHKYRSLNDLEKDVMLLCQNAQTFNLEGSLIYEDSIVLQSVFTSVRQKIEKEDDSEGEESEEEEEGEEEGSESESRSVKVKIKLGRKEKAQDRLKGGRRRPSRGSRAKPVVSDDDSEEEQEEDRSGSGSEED

Consider `Cc1ncsc1-c1ccc([C@H](C)NC(=O)[C@@H]2C[C@@H](O)CN2C(=O)[C@@H](c2cc(-c3cnc(N4CCC(c5cc6cc(-c7ccccc7O)nnc6s5)CC4)nc3)no2)C(C)C)cc1` [Compound 54, (2S,4R)-4-hydroxy-1-((R)-2-(3-(2-(4-(3-(2-hydroxyphenyl)thieno[2,3-c]pyridazin-6-yl)piperidin-1-yl)pyrimidin-5-yl)isoxazol-5-yl)-3-methylbutanoyl)-N-((S)-1-(4-(4-methylthiazol-5-yl)phenyl)ethyl)pyrrolidine-2-carboxamide], for which, at HiBit-BRM fusion protein, the “BRM HiBit Degradation Maximum (%)” value was “A (“A” indicates maximum degradation ≥75%)” and the DC50 was less than 10 nM. For the same molecule, in assay [1], the Dmax is less than 50% and the DC50 was greater than 1000 nM.
As for `Cc1ncsc1-c1ccc([C@H](C)NC(=O)[C@@H]2C[C@@H](O)CN2C(=O)[C@@H](c2cc(-c3cnc(N4CCC(c5cc6nnc(-c7ccccc7O)cc6s5)CC4)nc3)no2)C(C)C)cc1` [Compound 55, (2S,4R)-4-hydroxy-1-((R)-2-(3-(2-(4-(3-(2-hydroxyphenyl)thieno[3,2-c]pyridazin-6-yl)piperidin-1-yl)pyrimidin-5-yl)isoxazol-5-yl)-3-methylbutanoyl)-N-((S)-1-(4-(4-methylthiazol-5-yl)phenyl)ethyl)pyrrolidine-2-carboxamide], at HiBit-BRM fusion protein, the “BRM HiBit Degradation Maximum (%)” value is given as “A (“A” indicates maximum degradation ≥75%)” and the DC50 is less than 10 nM. In assay [1], the Dmax was less than 50% and the DC50 was greater than 1000 nM.
As to `Cc1ncsc1-c1ccc([C@H](C)NC(=O)[C@@H]2C[C@@H](O)CN2C(=O)[C@@H](c2cc(N3CCC(c4sc5nnc(-c6ccccc6O)cc5c4C)CC3)no2)C(C)C)cc1` [Compound 56, (2S,4R)-4-hydroxy-1-((R)-2-(3-(4-(3-(2-hydroxyphenyl)-5-methylthieno[2,3-c]pyridazin-6-yl)piperidin-1-yl)isoxazol-5-yl)-3-methylbutanoyl)-N-((S)-1-(4-(4-methylthiazol-5-yl)phenyl)ethyl)pyrrolidine-2-carboxamide], at HiBit-BRM fusion protein, the “BRM HiBit Degradation Maximum (%)” value is given as “B (“B” indicates maximum degradation ≥50%)” and the DC50 is greater than 10 nM. In assay [1], the Dmax is less than 50% and the DC50 is greater than 1000 nM.
In the case of `Cc1ncsc1-c1ccc([C@H](C)NC(=O)[C@@H]2C[C@@H](O)CN2C(=O)[C@@H](c2cc(-c3ccc(N4CCC(c5sc6nnc(-c7ccccc7O)cc6c5C)CC4)nn3)no2)C(C)C)cc1` [Compound 57, (2S,4R)-4-hydroxy-1-((R)-2-(3-(6-(4-(3-(2-hydroxyphenyl)-5-methylthieno[2,3-c]pyridazin-6-yl)piperidin-1-yl)pyridazin-3-yl)isoxazol-5-yl)-3-methylbutanoyl)-N-((S)-1-(4-(4-methylthiazol-5-yl)phenyl)ethyl)pyrrolidine-2-carboxamide], on HiBit-BRM fusion protein, the “BRM HiBit Degradation Maximum (%)” value is listed as “A (“A” indicates maximum degradation ≥75%)” and the DC50 was less than 10 nM. In assay [1], the Dmax was less than 50% and the DC50 was greater than 1000 nM.
For `Cc1ncsc1-c1ccc([C@H](C)NC(=O)[C@@H]2C[C@@H](O)CN2C(=O)[C@@H](c2cc(-c3ccnc(N4CCC(c5sc6nnc(-c7ccccc7O)cc6c5C)CC4)n3)no2)C(C)C)cc1` [Compound 58, (2S,4R)-4-hydroxy-1-((R)-2-(3-(2-(4-(3-(2-hydroxyphenyl)-5-methylthieno[2,3-c]pyridazin-6-yl)piperidin-1-yl)pyrimidin-4-yl)isoxazol-5-yl)-3-methylbutanoyl)-N-((S)-1-(4-(4-methylthiazol-5-yl)phenyl)ethyl)pyrrolidine-2-carboxamide], at HiBit-BRM fusion protein, the “BRM HiBit Degradation Maximum (%)” value is “A (“A” indicates maximum degradation ≥75%)” and the DC50 is less than 10 nM. In assay [1], the Dmax was greater than 75% and the DC50 is greater than 10 nM.
Consider `Cc1ncsc1-c1ccc([C@H](C)NC(=O)[C@@H]2C[C@@H](O)CN2C(=O)[C@@H](c2cc(-c3ccc(N4CCC(c5sc6nnc(-c7ccccc7O)cc6c5C)CC4)nc3)no2)C(C)C)cc1` [Compound 59, (2S,4R)-4-hydroxy-1-((R)-2-(3-(6-(4-(3-(2-hydroxyphenyl)-5-methylthieno[2,3-c]pyridazin-6-yl)piperidin-1-yl)pyridin-3-yl)isoxazol-5-yl)-3-methylbutanoyl)-N-((S)-1-(4-(4-methylthiazol-5-yl)phenyl)ethyl)pyrrolidine-2-carboxamide], for which, at HiBit-BRM fusion protein, the “BRM HiBit Degradation Maximum (%)” value was “A (“A” indicates maximum degradation ≥75%)” and the DC50 is less than 10 nM. Moreover, in assay [1], the Dmax was less than 50% and the DC50 is greater than 1000 nM.
`Cc1ncsc1-c1ccc([C@H](C)NC(=O)[C@@H]2C[C@@H](O)CN2C(=O)C(c2cc([C@H]3CC[C@H](c4cnc(N5CCC(c6sc7nnc(-c8ccccc8O)cc7c6C)CC5)nc4)CC3)no2)C(C)C)cc1` (stereo partly drawn) [Compound 64, (2S,4R)-4-hydroxy-1-((R)-2-(3-((1s,4S)-4-(2-(4-(3-(2-hydroxyphenyl)-5-methylthieno[2,3-c]pyridazin-6-yl)piperidin-1-yl)pyrimidin-5-yl)cyclohexyl)isoxazol-5-yl)-3-methylbutanoyl)-N—((S)-1-(4-(4-methylthiazol-5-yl)phenyl)ethyl)pyrrolidine-2-carboxamide]: on HiBit-BRM fusion protein, the “BRM HiBit Degradation Maximum (%)” value is recorded as “A (“A” indicates maximum degradation ≥75%)” and the DC50 was less than 10 nM. For the same molecule, in assay [1], the Dmax was greater than 75% and the DC50 is greater than 10 nM.
With `Cc1ncsc1-c1ccc([C@H](C)NC(=O)[C@@H]2C[C@@H](O)CN2C(=O)C(c2cc(N3CC4(C3)CN(c3cc5nnc(-c6ccccc6O)cc5s3)C4)no2)C(C)C)cc1` (stereo partly drawn) [Compound 67, (2S,4R)-4-hydroxy-1-(2-(3-(6-(3-(2-hydroxyphenyl)thieno[3,2-c]pyridazin-6-yl)-2,6-diazaspiro[3.3]heptan-2-yl)isoxazol-5-yl)-3-methylbutanoyl)-N-((S)-1-(4-(4-methylthiazol-5-yl)phenyl)ethyl)pyrrolidine-2-carboxamide], at HiBit-BRM fusion protein, the “BRM HiBit Degradation Maximum (%)” value is listed as “A (“A” indicates maximum degradation ≥75%)” and the DC50 was less than 10 nM. Moreover, the Dmax in assay [1] was less than 50%.
As for `Cc1ncsc1-c1ccc([C@H](C)NC(=O)[C@@H]2C[C@@H](O)CN2C(=O)[C@@H](c2cc(N3CC4(C3)CN(c3cc5cc(-c6ccccc6O)nnc5s3)C4)no2)C(C)C)cc1` [Compound 68, (2S,4R)-4-hydroxy-1-((R)-2-(3-(6-(3-(2-hydroxyphenyl)thieno[2,3-c]pyridazin-6-yl)-2,6-diazaspiro[3.3]heptan-2-yl)isoxazol-5-yl)-3-methylbutanoyl)-N-((S)-1-(4-(4-methylthiazol-5-yl)phenyl)ethyl)pyrrolidine-2-carboxamide], at HiBit-BRM fusion protein, the “BRM HiBit Degradation Maximum (%)” value is “A (“A” indicates maximum degradation ≥75%)” and the DC50 was less than 10 nM. For the same molecule, in assay [1], the Dmax is less than 50%.
As to `Cc1ncsc1-c1ccc([C@H](C)NC(=O)[C@@H]2C[C@@H](O)CN2C(=O)[C@@H](c2cc(N3CC4(CC(c5cc6nnc(-c7ccccc7O)cc6s5)C4)C3)no2)C(C)C)cc1` [Compound 69, (2S,4R)-4-hydroxy-1-((R)-2-(3-(6-(3-(2-hydroxyphenyl)thieno[3,2-c]pyridazin-6-yl)-2-azaspiro[3.3]heptan-2-yl)isoxazol-5-yl)-3-methylbutanoyl)-N-((S)-1-(4-(4-methylthiazol-5-yl)phenyl)ethyl)pyrrolidine-2-carboxamide], on HiBit-BRM fusion protein, the “BRM HiBit Degradation Maximum (%)” value is reported as “A (“A” indicates maximum degradation ≥75%)” and the DC50 is less than 10 nM. Also, in assay [1], the Dmax was greater than 75% and the DC50 is less than 10 nM.
`Cc1ncsc1-c1ccc([C@H](C)NC(=O)[C@@H]2C[C@@H](O)CN2C(=O)[C@@H](c2cc(N3C[C@@H]4[C@H](C3)[C@H]4c3cc4nnc(-c5ccccc5O)cc4s3)no2)C(C)C)cc1` [Compound 70, (2S,4R)-4-hydroxy-1-((2R)-2-(3-((1R,5S)-6-(3-(2-hydroxyphenyl)thieno[3,2-c]pyridazin-6-yl)-3-azabicyclo[3.1.0]hexan-3-yl)isoxazol-5-yl)-3-methylbutanoyl)-N-((S)-1-(4-(4-methylthiazol-5-yl)phenyl)ethyl)pyrrolidine-2-carboxamide]: at HiBit-BRM fusion protein, the “BRM HiBit Degradation Maximum (%)” value is “B (“B” indicates maximum degradation ≥50%)” and the DC50 is less than 10 nM. In addition, the Dmax in assay [1] was less than 50%.
Consider `Cc1ncsc1-c1ccc([C@H](C)NC(=O)[C@@H]2C[C@@H](O)CN2C(=O)[C@@H](c2cc(N3CC4(C3)CN(c3sc5nnc(-c6ccccc6O)cc5c3C3CC3)C4)no2)C(C)C)cc1` [Compound 71, (2S,4R)-1-((R)-2-(3-(6-(5-cyclopropyl-3-(2-hydroxyphenyl)thieno[2,3-c]pyridazin-6-yl)-2,6-diazaspiro[3.3]heptan-2-yl)isoxazol-5-yl)-3-methylbutanoyl)-4-hydroxy-N—((S)-1-(4-(4-methylthiazol-5-yl)phenyl)ethyl)pyrrolidine-2-carboxamide], for which, at HiBit-BRM fusion protein, the “BRM HiBit Degradation Maximum (%)” value is recorded as “A (“A” indicates maximum degradation ≥75%)” and the DC50 was less than 10 nM. For the same molecule, in assay [1], the Dmax was less than 50%.
On the same counts, the results for `Cc1ncsc1-c1ccc([C@H](C)NC(=O)[C@@H]2C[C@@H](O)CN2C(=O)[C@@H](c2cc(N3CC[C@@H](c4cc5nnc(-c6ccccc6O)cc5s4)C3)no2)C(C)C)cc1` [Compound 72, (2S,4R)-4-hydroxy-1-((R)-2-(3-((R)-3-(3-(2-hydroxyphenyl)thieno[3,2-c]pyridazin-6-yl)pyrrolidin-1-yl)isoxazol-5-yl)-3-methylbutanoyl)-N-((S)-1-(4-(4-methylthiazol-5-yl)phenyl)ethyl)pyrrolidine-2-carboxamide] are “A (“A” indicates maximum degradation ≥75%)”, less than 10 nM and less than 50%.
